Literature values in article PMC9992518, “Structural basis of peptide recognition and activation of endothelin receptors” (Nature Communications, 2023).

How the values were obtained:
ETAR [1] = test system: ETAR
ETBR [2] = test system: ETBR; set-up: method as in earlier work; conditions: ETBR activated by ET-3
ETBR [3] = biological target: ETBR
From the text: (§1) S6c bears an identical substitution from K9 to E9 compared with s6b (Fig. 1a). The charge of the ninth residue has been thought to determine the ETR selectivity of s6c over s6b[33], supporting the importa ...

ETAR [4] = biological target: ETAR; remark: listed apart in the source
From the text: as §1

LgBiT = conditions: NanoBiT complementary peptide
From the text: NanoLuc Binary Technology (NanoBiT, Promega) is originally a structurally complementary reporter system to evaluate protein-protein interaction in cells. NanoBiT is composed of a large subunit (LgBiT, 18 kDa) and an 11 amino acid complementary peptide (SmBiT, peptide, […]) with low affinity for LgBiT, both of which are connected to two interacting target proteins of interest, respectively. When the two proteins interact, the two subunits assemble into an active enzyme and generate a bright luminescent signal in the presence of a substrate. To improve the homogeneity and stability o ...

Substance: ET-3: endothelin, 21-amino-acid peptide hormone
- fold weaker affinity for ETAR (ETAR [1]; ETAR, relative to ET-1 and ET-2): 100 fold
- effect on ET-1-mediated effects upon ETBR activation (in words) (ETBR [2]): can inhibit the ET-1-mediated effects

Substance: Sarafotoxin s6c
- ETBR selectivity (in words) (ETAR [1]; from reduced affinity for ETAR compared with s6b): substantial ETBR selectivity

Substance: Succinyl-[Glu^9, Ala^11,15]-ET-1(8-21) [IRL1620]
- Ki (ETBR [3]): 0.016 nM
- Ki (ETAR [4]): 1900 nM

Substance: VSGWRLFKKIS [HiBiT]
- affinity for LgBiT (in words) (LgBiT): high affinity

Substance: VTGYRLFEEIL [SmBiT]
- affinity for LgBiT (in words) (LgBiT): low affinity
